Key:
[1] = target: T1, PI3Kα (wild-type), P110/P85α (Homo sapiens, UniProt P42336); assay: PI3 Kinase TR-FRET assay, PI3Kα (wild-type); type: biochemical
T1 construct: made in house; host or cells: SF9 insect cells
Description: The ability of compounds of the invention to inhibit PI3K activity was determined in a homogeneous TR-FRET assay using a PI3K assay kit (Millipore, USA; cat #33-016) according to manufacturer's instructions. PI3-Kinases (isoforms α, β, γ and δ) catalyze the phosphorylation of phosphatidylinositol, PIP2 to PIP3 in the presence of ATP and Mg^2+. The PIP3 product is detected by displacement of biotin-PIP3 from an energy transfer complex consisting of Europium labeled anti-GST monoclonal antibody, a GST-tagged PH domain, biotinylated PIP3 and Streptavidin-APC. Excitation of Europium in the complex results in an energy transfer to the APC and a fluorescence emission at 665 nm. The PIP3 product displaces biotin-PIP3 from the complex resulting in a loss of energy transfer and thus a decrease in signal.
To test for the ability of compounds to inhibit the activity of PI3Kα (wild-type), exemplary compounds of formula (I) were dissolved in DMSO and directly distributed into 384-well plates at a volume of 0.5 μL. 14.5 μL of P110/P85α/PIP2 mixture in buffer (obtained from the Millipore kit) containing MgCl2 (40 mM) and DTT (5 mM) was added to compound wells and incubated for 60 min at room temperature. P110/P85α was expressed in SF9 insect cells and purified nickel column extraction. Five ng of wild-type P110/P85α was used in the assay. The kinase reaction was started by the addition of ATP. The assay concentrations of both PIP2 and ATP were 10 μM. The reaction mixture was incubated for 30 min at room temperature and was terminated by the addition of stop mix and detection mix. Fluorescence was measured at 615 and 665 nm upon excitation at 340 nm in a Victor™ V5 fluorometer (Perkin Elmer, USA). The fluorescence emission ratio at 665 to 615 nm, proportional to the kinase activity, was plotted against the compound concentration to generate dose-response curves and IC50 values were determined using GraphPad Prism® 5 software.

mTOR kinase = target: T2, mTOR kinase (Homo sapiens, UniProt P42345); assay: mTOR kinase TR-FRET assay; type: biochemical; settings: read-out: mTO R
T2 construct: purchased Millipore, USA
Description: Compound inhibition for mTOR kinase was determined in a homogeneous TR-FRET assay using the Lance® ULight-p70 S6K (Thr 389) peptide (obtained from Perkin-Elmer). The ULight™-labeled synthetic peptide contains the amino acid residues surrounding Thr389 of human p70 S6K. The ULight-p70 S6K peptide is phosphorylated at Thr389 by mTOR. Phosphorylation motif: LGFTYVAP as substrate.
The compound dilution was carried out in 100% DMSO followed by a buffer dilution. The reaction buffer was HEPES (50 mM pH 7.5), EGTA (1 mM), MnCl2 (3 mM). Test compounds at various concentrations were pre-incubated with mTOR (Millipore, USA; 5 ng) for 60 min, and then the Lance® ULight-p70 S6K (Thr 389) peptide (50 nM) was added along with ATP (20 μM). After incubating the reaction mixture for 60 min at room temperature, the kinase reaction was terminated by the addition of EDTA (10 mM) followed by the addition of detection mix, i.e., 1 nM Eu-labeled anti-phospho-substrate antibody (Perkin Elmer, USA). The fluorescence emission at […] was measured upon excitation at 340 nm. IC50 values were subsequently determined using a sigmoidal dose-response curve (variable slope) in GraphPad Prism® 5 software.
Compounds of formula (I) caused inhibition of mTOR kinase activity as determined by this assay.

T1 sequence (P42336 whole entry): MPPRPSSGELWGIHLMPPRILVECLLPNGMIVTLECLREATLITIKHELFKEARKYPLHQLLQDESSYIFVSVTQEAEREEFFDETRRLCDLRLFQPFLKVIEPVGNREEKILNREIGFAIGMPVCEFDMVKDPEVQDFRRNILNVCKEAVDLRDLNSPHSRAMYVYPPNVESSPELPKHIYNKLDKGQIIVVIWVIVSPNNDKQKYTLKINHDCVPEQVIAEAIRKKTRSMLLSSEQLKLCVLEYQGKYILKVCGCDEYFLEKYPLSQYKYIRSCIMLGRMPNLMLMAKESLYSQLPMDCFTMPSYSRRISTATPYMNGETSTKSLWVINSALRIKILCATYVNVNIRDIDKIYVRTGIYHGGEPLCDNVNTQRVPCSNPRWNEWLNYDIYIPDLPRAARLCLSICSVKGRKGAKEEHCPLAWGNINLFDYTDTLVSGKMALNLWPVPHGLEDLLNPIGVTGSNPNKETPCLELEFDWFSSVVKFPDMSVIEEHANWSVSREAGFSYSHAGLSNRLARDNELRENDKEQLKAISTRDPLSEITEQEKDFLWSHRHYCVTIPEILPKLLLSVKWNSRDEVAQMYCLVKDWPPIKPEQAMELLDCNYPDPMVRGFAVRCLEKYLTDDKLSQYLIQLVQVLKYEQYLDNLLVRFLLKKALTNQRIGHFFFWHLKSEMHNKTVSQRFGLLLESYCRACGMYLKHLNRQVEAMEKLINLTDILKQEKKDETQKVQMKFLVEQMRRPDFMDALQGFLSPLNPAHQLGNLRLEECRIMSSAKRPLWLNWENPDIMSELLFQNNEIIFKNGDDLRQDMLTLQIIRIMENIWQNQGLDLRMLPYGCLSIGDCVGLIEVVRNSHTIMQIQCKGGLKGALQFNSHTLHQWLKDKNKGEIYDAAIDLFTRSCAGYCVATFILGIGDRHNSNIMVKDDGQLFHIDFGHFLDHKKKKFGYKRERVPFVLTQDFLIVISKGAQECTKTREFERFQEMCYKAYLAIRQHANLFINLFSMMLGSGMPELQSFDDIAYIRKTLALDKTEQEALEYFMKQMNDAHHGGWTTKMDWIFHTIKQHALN
T1 sequence (P27986 whole entry partner): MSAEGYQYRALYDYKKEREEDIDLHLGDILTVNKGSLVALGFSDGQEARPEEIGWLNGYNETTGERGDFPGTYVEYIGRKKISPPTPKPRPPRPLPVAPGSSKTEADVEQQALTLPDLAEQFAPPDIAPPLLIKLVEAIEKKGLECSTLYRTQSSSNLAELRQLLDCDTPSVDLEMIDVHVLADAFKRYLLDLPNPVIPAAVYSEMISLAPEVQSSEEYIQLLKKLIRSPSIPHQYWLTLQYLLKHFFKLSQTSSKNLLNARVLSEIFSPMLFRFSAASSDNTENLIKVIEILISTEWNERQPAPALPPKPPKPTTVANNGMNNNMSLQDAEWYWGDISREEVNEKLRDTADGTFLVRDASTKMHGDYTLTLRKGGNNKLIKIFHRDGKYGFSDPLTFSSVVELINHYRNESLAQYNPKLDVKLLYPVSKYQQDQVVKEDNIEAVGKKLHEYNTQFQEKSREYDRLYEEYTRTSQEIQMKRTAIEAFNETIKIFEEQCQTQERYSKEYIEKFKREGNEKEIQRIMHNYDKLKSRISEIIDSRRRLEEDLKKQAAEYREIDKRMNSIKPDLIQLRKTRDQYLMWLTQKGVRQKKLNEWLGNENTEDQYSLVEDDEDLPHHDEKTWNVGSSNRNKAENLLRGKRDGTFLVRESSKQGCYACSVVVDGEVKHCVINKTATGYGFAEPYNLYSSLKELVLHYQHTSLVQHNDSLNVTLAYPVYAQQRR

Work on CN(C)C(=O)c1ccc(NC(=O)Nc2ccc(-c3nc(N4CCOCC4)c4ccc(-c5cccc(F)c5)cc4n3)cc2)cc1 [Example 47, 4-(3-{4-[7-(3-fluoro-phenyl)-4-morpholin-4-yl-quinazolin-2-yl]-phenyl}-ureido)-N,N-dimethyl-benzamide] yielded an IC50 [1] of 50 to 200 nM and an IC50 (mTOR kinase) of 201 to 10000 nM.
Compound COc1cccc(-c2ccc3c(N4CCOCC4)nc(-c4ccc(NC(=O)Nc5ccc(C(=O)N(C)C)cc5)cc4)nc3c2)c1 [Example 48, 4-(3-{4-[7-(3-methoxy-phenyl)-4-morpholin-4-yl-quinazolin-2-yl]-phenyl}-ureido)-N,N-dimethyl-benzamide] has an IC50 [1] of 50 to 200 nM and an IC50 (mTOR kinase) of 50 to 200 nM.
Compound CN(C)C(=O)c1ccc(NC(=O)Nc2ccc(-c3nc(N4CCOCC4)c4ccc(-c5cccc(N(C)C)c5)cc4n3)cc2)cc1 [Example 50, 4-(3-{4-[7-(3-dimethylamino-phenyl)-4-morpholin-4-yl-quinazolin-2-yl]-phenyl}-ureido)-N,N-dimethyl-benzamide] has an IC50 [1] of under 50 nM and an IC50 (mTOR kinase) of 50 to 200 nM.
CNC(=O)c1ccc(NC(=O)Nc2ccc(-c3nc(N4CCOCC4)c4ccc(-c5ccc(C)o5)cc4n3)cc2)cc1 [Example 56, N-methyl-4-(3-{4-[7-(5-methyl-furan-2-yl)-4-morpholin-4-yl-quinazolin-2-yl]-phenyl}-ureido)-benzamide] showed an IC50 [1] of 50 to 200 nM and an IC50 (mTOR kinase) of under 50 nM.
With Cc1ccc(-c2ccc3c(N4CCOCC4)nc(-c4ccc(NC(=O)Nc5ccc(C(=O)N(C)C)cc5)nc4)nc3c2)o1 [Example 57, N,N-dimethyl-4-(3-{5-[7-(5-methyl-furan-2-yl)-4-morpholin-4-yl-quinazolin-2-yl]-pyridin-2-yl}-ureido)-benzamide] the IC50 [1] was under 50 nM and the IC50 (mTOR kinase) was 201 to 10000 nM.
For Cc1ccc(-c2ccc3c(N4CCOCC4)nc(-c4ccc(NC(=O)Nc5ccc(C(=O)N(C)C)cc5)cc4)nc3c2)s1 [Example 61, N,N-dimethyl-4-(3-{4-[7-(5-methyl-thiophen-2-yl)-4-morpholin-4-yl-quinazolin-2-yl]-phenyl}-ureido)-benzamide], the IC50 [1] was 50 to 200 nM and the IC50 (mTOR kinase) was 201 to 10000 nM.
For CN(C)C(=O)c1ccc(NC(=O)Nc2ccc(-c3nc(N4CCOCC4)c4ccc(-c5cc6ccccc6o5)cc4n3)cc2)cc1 [Example 64, 4-{3-[4-(7-benzofuran-2-yl-4-morpholin-4-yl-quinazolin-2-yl)-phenyl]-ureido}-N,N-dimethyl-benzamide], the IC50 [1] was 201 to 10000 nM and the IC50 (mTOR kinase) was 201 to 10000 nM.
Cc1ccc(-c2cccc3c(N4CCOCC4)nc(-c4ccc(NC(=O)Nc5ccc(C(=O)N(C)C)cc5)cc4)nc23)o1 [Example 71, N,N-dimethyl-4-(3-{4-[8-(5-methyl-furan-2-yl)-4-morpholin-4-yl-quinazolin-2-yl]-phenyl}-ureido)-benzamide] showed an IC50 [1] of 50 to 200 nM and an IC50 (mTOR kinase) of under 50 nM.
In the case of CN(C)C(=O)c1ccc(NC(=O)Nc2ccc(-c3nc(N4CCOCC4)c4ccc(-c5cnc(N)nc5)cc4n3)cc2)cc1 [Example 76, 4-(3-{4-[7-(2-amino-pyrimidin-5-yl)-4-morpholin-4-yl-quinazolin-2-yl]-phenyl}-ureido)-N,N-dimethyl-benzamide], the IC50 [1] is reported as under 50 nM and the IC50 (mTOR kinase) is reported as under 50 nM.
For CN(C)C(=O)c1ccc(NC(=O)Nc2ccc(-c3nc(N4CCOCC4)c4ncc(-c5cccnc5F)cc4n3)cc2)cc1 [Example 78, 4-(3-{4-[7-(2-fluoro-pyridin-3-yl)-4-morpholin-4-yl-pyrido[3,2-d]pyrimidin-2-yl]-phenyl}-ureido)-N,N-dimethyl-benzamide], the IC50 [1] was under 50 nM and the IC50 (mTOR kinase) was under 50 nM.
With CN(C)C(=O)c1ccc(NC(=O)Nc2ccc(-c3nc(N4CCOCC4)c4cc(F)c(-c5cnn(C)c5)cc4n3)cc2F)cc1 [Example 108, 4-(3-(2-fluoro-4-(6-fluoro-7-(1-methyl-1H-pyrazol-4-yl)-4-morpholino-quinazolin-2-yl)phenyl)ureidodimethyl-benzamide)-N,N-dimethyl-benzamide] the IC50 [1] was 50 to 200 nM and the IC50 (mTOR kinase) was under 50 nM.
CN(C)C(=O)c1ccc(NC(=O)Nc2ccc(-c3nc(N4CCOCC4)c4cc(F)c(-c5cccnc5)cc4n3)cc2F)cc1 [Example 109, 4-(3-(2-fluoro-4-(6-fluoro-4-morpholino-7-(pyridin-3-yl)quinazolin-2-yl)phenyl)ureido)-N,N-dimethyl-benzamide] was tested, and the IC50 [1] was 50 to 200 nM and the IC50 (mTOR kinase) was 50 to 200 nM.
CN(C)C(=O)c1ccc(NC(=O)Nc2ccc(-c3nc(N4CCOCC4)c4ccc(-c5cnc(N)nc5)cc4n3)cc2F)cc1 [Example 110, 4-(3-(4-(7-(2-aminopyrimidin-5-yl)-4-morpholino-quinazolin-2-yl)-2-fluorophenyl)ureido)-N,N-dimethyl-benzamide] showed an IC50 [1] of 201 to 10000 nM and an IC50 (mTOR kinase) of under 50 nM.
For CN(C)C(=O)c1ccc(NC(=O)Nc2ccc(-c3nc(N4CCOCC4)c4ccc(-c5ccco5)cc4n3)cc2F)cc1 [Example 114, 4-(3-(2-fluoro-4-(7-(furan-2-yl)-4-morpholino-quinazolin-2-yl)phenyl)ureido)-N,N-dimethyl-benzamide], the IC50 [1] was 50 to 200 nM and the IC50 (mTOR kinase) was 50 to 200 nM.
COc1ncc(-c2ccc3c(N4CCOCC4)nc(-c4ccc(NC(=O)Nc5ccc(C(=O)N(C)C)cc5)nc4)nc3c2)cn1 [Example 119, 4-(3-(5-(7-(2-methoxypyrimidin-5-yl)-4-morpholino-quinazolin-2-yl)pyridin-2-yl)ureido)-N,N-dimethyl-benzamide] gave an IC50 [1] of under 50 nM and an IC50 (mTOR kinase) of 201 to 10000 nM.
Work on Cc1ccc(-c2ccc3c(N4CCOCC4)nc(-c4ccc(NC(=O)Nc5ccc(C(=O)N(C)C)nc5)c(F)c4)nc3c2)o1 [Example 122, 5-(3-(2-fluoro-4-(7-(5-methylfuran-2-yl)-4-morpholino-quinazolin-2-yl)phenyl)ureido)-N,N-dimethylpicolinamide] yielded an IC50 [1] of 50 to 200 nM and an IC50 (mTOR kinase) of 50 to 200 nM.
CC1CN(c2nc(-c3ccc(NC(=O)Nc4ccc(C(=O)N(C)C)cc4)cc3)nc3cc(-c4cnn(C)c4)cnc23)CC(C)O1 (centres unmarked) [Example 125, 4-(3-(4-(4-(2,6-dimethylmorpholino)-7-(1-methyl-1H-pyrazol-4-yl)pyrido[3,2-d]pyrimidin-2-yl)phenyl)ureido)-N,N-dimethyl-benzamide] showed an IC50 [1] of 201 to 10000 nM and an IC50 (mTOR kinase) of 50 to 200 nM.
With CC1CN(c2nc(-c3ccc(NC(=O)Nc4ccc(C(=O)N(C)C)cc4)c(F)c3)nc3cc(-c4cnn(C)c4)cnc23)CC(C)O1 (centres unmarked) [Example 126, 4-(3-(4-(4-(2,6-dimethylmorpholino)-7-(1-methyl-1H-pyrazol-4-yl)pyrido[3,2-d]pyrimidin-2-yl)-2-fluorophenyl)ureido)-N,N-dimethyl-benzamide] the IC50 [1] was 201 to 10000 nM and the IC50 (mTOR kinase) was 201 to 10000 nM.
Cc1ccc(-c2ccc3c(N4CCOCC4)nc(-c4ccc(NC(=O)Nc5ccc(C(=O)N(C)C)cc5F)cc4)nc3c2)o1 [Example 136, 3-fluoro-N,N-dimethyl-4-(3-(4-(7-(5-methylfuran-2-yl)-4-morpholino-quinazolin-2-yl)phenyl)ureido)-benzamide] was tested, and the IC50 [1] was 201 to 10000 nM and the IC50 (mTOR kinase) was 201 to 10000 nM.
Compound CN(C)C(=O)c1ccc(NC(=O)Nc2ccc(-c3nc(N4CCOCC4)c4ccc(-c5cncnc5)cc4n3)cc2F)c(F)c1 [Example 139, 3-fluoro-4-(3-(2-fluoro-4-(4-morpholino-7-(pyrimidin-5-yl)quinazolin-2-yl)phenyl)ureido)-N,N-dimethyl-benzamide] has an IC50 [1] of 201 to 10000 nM and an IC50 (mTOR kinase) of 201 to 10000 nM.
Work on CN(C)C(=O)c1ccc(NC(=O)Nc2ccc(-c3nc(N4CCOCC4)c4ccc(-c5cncnc5)cc4n3)cn2)c(F)c1 [Example 140, 3-fluoro-N,N-dimethyl-4-(3-(5-(4-morpholino-7-(pyrimidin-5-yl)quinazolin-2-yl)pyridin-2-yl)ureido)-benzamide] yielded an IC50 [1] of under 50 nM and an IC50 (mTOR kinase) of 201 to 10000 nM.
Compound CN(C)C(=O)c1ccc(NC(=O)Nc2ccc(-c3nc(N4CCOCC4)c4ncc(-c5cnn(C)c5)cc4n3)cc2F)c(F)c1 [Example 141, 3-fluoro-4-(3-(2-fluoro-4-(7-(1-methyl-1H-pyrazol-4-yl)-4-morpholino-pyrido[3,2-d]pyrimidin-2-yl)phenyl)ureido)-N,N-dimethyl-benzamide] has an IC50 [1] of 201 to 10000 nM and an IC50 (mTOR kinase) of 50 to 200 nM.

Source: patent US9115092B2, “Substituted quinazoline and pyrido-pyrimidine derivatives” (Asana Biosciences, LLC, priority 2010, dated 2015)
